Assay results from ChEMBL document CHEMBL4819019, “Design, synthesis, antibacterial activity and toxicity of novel quaternary ammonium compounds based on pyridoxine and fatty acids” (Eur J Med Chem, 2021).
Converted amounts (≈) assume the structure as drawn. The source made the active and inactive calls. The calls are words filed in the database; no cut-off is given here.

Experiments:
[1] = tested on: Klebsiella sp.; assay: Antibacterial activity against clinical isolate Klebsiella sp. 11 measured after 24 hrs by broth microdilution method; assay type: functional
[2] = tested on: Staphylococcus ureilyticus; assay: Antibacterial activity against clinical isolate Staphylococcus ureilyticus 1972 measured after 24 hrs by broth microdilution method; assay type: functional
[3] = tested on: Pseudomonas sp.; assay: Antibacterial activity against clinical isolate Pseudomonas sp. 5 measured after 24 hrs by broth microdilution method; assay type: functional
[4] = tested on: Staphylococcus intermedius; assay: Antibacterial activity against clinical isolate methicillin-resistant Staphylococcus intermedius 1143 measured after 24 hrs by broth microdilution method; assay type: functional
[5] = tested on: Staphylococcus aureus; assay: Antibacterial activity against clinical isolate methicillin-resistant Staphylococcus aureus 713 measured after 24 hrs by broth microdilution method; assay type: functional
[6] = tested on: Klebsiella pneumoniae; assay: Antibacterial activity against clinical isolate Klebsiella pneumoniae 1813 measured after 24 hrs by broth microdilution method; assay type: functional
[7] = tested on: Staphylococcus aureus; assay: Antibacterial activity against Staphylococcus aureus ATCC 29213 measured after 24 hrs by broth microdilution method; assay type: functional
[8] = tested on: Bacillus subtilis; assay: Antibacterial activity against Bacillus subtilis 168 measured after 24 hrs by broth microdilution method; assay type: functional
[9] = tested on: Enterococcus faecalis; assay: Antibacterial activity against clinical isolate Enterococcus faecalis 3063 measured after 24 hrs by broth microdilution method; assay type: functional
[10] = tested on: Staphylococcus aureus; assay: Antibacterial activity against Staphylococcus aureus assessed as fold increase in MIC after 8 passages by serial dilution method; assay type: functional, organism-based; conditions: time 24.0 hrs
[11] = tested on: Proteus sp.; assay: Antibacterial activity against clinical isolate Proteus sp. 17 measured after 24 hrs by broth microdilution method; assay type: functional; conditions: Proteus sp. (in: enterobacteria)
[12] = tested on: Staphylococcus aureus; assay: Antibacterial activity against clinical isolate Staphylococcus aureus 25 measured after 24 hrs by broth microdilution method; assay type: functional
[13] = tested on: Moraxella; assay: Antibacterial activity against clinical isolate Moraxella 765 measured after 24 hrs by broth microdilution method; assay type: functional
[14] = Lipophilicity, logP of the compound; assay type: physicochemical; conditions: octanol/water
[15] = Cytotoxicity against human mesenchymal stem cells assessed as cell viability measured after 72 hrs by MTT assay; assay type: cell-based
[16] = tested on: Escherichia coli; assay: Antibacterial activity against Escherichia coli MG 1655 measured after 24 hrs by broth microdilution method; assay type: functional
[17] = tested on: Staphylococcus aureus; assay: Antibacterial activity against clinical isolate methicillin-resistant Staphylococcus aureus 1053 measured after 24 hrs by broth microdilution method; assay type: functional
[18] = Cytotoxicity against human HEK293 cells assessed as cell viability measured after 72 hrs by MTT assay; assay type: cell-based
[19] = tested on: Staphylococcus aureus; assay: Antibacterial activity against clinical isolate methicillin-resistant Staphylococcus aureus 1065 measured after 24 hrs by broth microdilution method; assay type: functional
[20] = Cytotoxicity against human skin fibroblasts assessed as cell viability measured after 72 hrs by MTT assay; assay type: cell-based, Fibroblast
[21] = tested on: Escherichia coli; assay: Antibacterial activity against clinical isolate Escherichia coli 718 measured after 24 hrs by broth microdilution method; assay type: functional
[22] = tested on: Micrococcus luteus; assay: Antibacterial activity against Micrococcus luteus clinical isolate measured after 24 hrs by broth microdilution method; assay type: functional
[23] = tested on: Staphylococcus aureus; assay: Antibacterial activity against clinical isolate methicillin-resistant Staphylococcus aureus 1131 measured after 24 hrs by broth microdilution method; assay type: functional
[24] = tested on: Pseudomonas aeruginosa; assay: Antibacterial activity against Pseudomonas aeruginosa ATCC 27853 measured after 24 hrs by broth microdilution method; assay type: functional
[25] = tested on: Escherichia coli; assay: Antibacterial activity against Escherichia coli assessed as fold increase in MIC after 4 passages by serial dilution method; assay type: functional, organism-based; conditions: time 24.0 hrs
[26] = tested on: Pseudomonas aeruginosa; assay: Antibacterial activity against clinical isolate Pseudomonas aeruginosa 1945 measured after 24 hrs by broth microdilution method; assay type: functional
[27] = tested on: Staphylococcus aureus; assay: Antibacterial activity against clinical isolate methicillin-resistant Staphylococcus aureus 983 measured after 24 hrs by broth microdilution method; assay type: functional
[28] = tested on: Enterococcus faecalis; assay: Antibacterial activity against clinical isolate Enterococcus faecalis 23 measured after 24 hrs by broth microdilution method; assay type: functional
[29] = tested on: Serratia marcescens; assay: Antibacterial activity against clinical isolate Serratia marcescens 1966 measured after 24 hrs by broth microdilution method; assay type: functional
[30] = Acute toxicity in po dosed C57BL/6CBA mouse measured upto 7 days; assay type: organism-based; conditions: in vivo, time <=7 day
[31] = tested on: Acinetobacter sp.; assay: Antibacterial activity against clinical isolate Acinetobacter sp. 3 measured after 24 hrs by broth microdilution method; assay type: functional
[32] = tested on: Staphylococcus intermedius; assay: Antibacterial activity against clinical isolate methicillin-resistant Staphylococcus intermedius 1061 measured after 24 hrs by broth microdilution method; assay type: functional
[33] = Genotoxicity in Salmonella typhimurium TA1535/pSK1002 assessed as DNA-damage activity by measuring beta-galactosidase activity at 750 ug/ml measured by SOS-chromotest relative to solvent control; assay type: toxicity; conditions: salmonella enterica subsp. enterica serovar typhimurium; dose 750 µg/ml
[34] = Genotoxicity in Salmonella typhimurium TA98 assessed as number of revertant by Ames spot test relative to solvent control; assay type: toxicity; conditions: salmonella enterica subsp. enterica serovar typhimurium
[35] = Genotoxicity in Salmonella typhimurium TA1535/pSK1002 assessed as DNA-damage activity by measuring beta-galactosidase activity at 150 ug/ml measured by SOS-chromotest relative to solvent control; assay type: toxicity; conditions: salmonella enterica subsp. enterica serovar typhimurium; dose 150 µg/ml
[36] = Genotoxicity in Salmonella typhimurium TA100 assessed as number of revertant by Ames spot test relative to solvent control; assay type: toxicity; conditions: salmonella enterica subsp. enterica serovar typhimurium
[37] = Genotoxicity in Salmonella typhimurium TA1537 assessed as number of revertant by Ames spot test relative to solvent control; assay type: toxicity; conditions: salmonella enterica subsp. enterica serovar typhimurium
[38] = Genotoxicity in Salmonella typhimurium TA1535/pSK1002 assessed as DNA-damage activity by measuring beta-galactosidase activity at 75 ug/ml measured by SOS-chromotest relative to solvent control; assay type: toxicity; conditions: salmonella enterica subsp. enterica serovar typhimurium; dose 75 µg/ml
[39] = Genotoxicity in Salmonella typhimurium TA1535 assessed as number of revertant by Ames spot test relative to solvent control; assay type: toxicity; conditions: salmonella enterica subsp. enterica serovar typhimurium
[40] = Genotoxicity in Salmonella typhimurium TA1535/pSK1002 assessed as DNA-damage activity by measuring beta-galactosidase activity at 15 ug/ml measured by SOS-chromotest relative to solvent control; assay type: toxicity; conditions: salmonella enterica subsp. enterica serovar typhimurium; dose 15 µg/ml
[41] = Genotoxicity in Salmonella typhimurium TA1535/pSK1002 assessed as DNA-damage activity by measuring beta-galactosidase activity at 7.5 ug/ml measured by SOS-chromotest relative to solvent control; assay type: toxicity; conditions: salmonella enterica subsp. enterica serovar typhimurium; dose 7.5 µg/ml

## CCCCCCCCCCCCCC(=O)NCCC[N+](C)(C)Cc1ccccc1.[Cl-] [MIRAMISTIN]
[1]
  MIC: > 64 µg/mL
[2]
  MIC: > 64 µg/mL
[3]
  MIC: > 64 µg/mL
[4]
  MIC: 64 µg/mL
[5]
  MIC: 64 µg/mL
[6]
  MIC: 16 µg/mL
[7]
  MIC: 2 µg/mL
[8]
  MIC: 4 µg/mL
[9]
  MIC: 16 µg/mL
[10]
  MIC: Active
[11]
  MIC: > 64 µg/mL
[12]
  MIC: 16 µg/mL
[13]
  MIC: > 64 µg/mL
[14]
  logP: 2.43
[15]
  CC50 at 72 h: 4.16 µg/mL
[16]
  MIC: 8 µg/mL
[17]
  MIC: 32 µg/mL
[18]
  CC50 at 72 h: 6.08 µg/mL
[19]
  MIC: 32 µg/mL
[20]
  CC50 at 72 h: 7.21 µg/mL
[21]
  MIC: 64 µg/mL
[22]
  MIC: 2 µg/mL
[23]
  MIC: 32 µg/mL
[24]
  MIC: 1 µg/mL
[25]
  MIC: Active
[26]
  MIC: 64 µg/mL
[27]
  MIC: > 64 µg/mL
[28]
  MIC: 4 µg/mL
[29]
  MIC: > 64 µg/mL
[30]
  LD50 at 168 h: 1000 mg/kg
[31]
  MIC: > 64 µg/mL
[32]
  MIC: 64 µg/mL

## [H]/N=C(\N/C(=N/[H])NCCCCCCNC(=N)NC(=N)Nc1ccc(Cl)cc1)Nc1ccc(Cl)cc1 [CHLORHEXIDINE]
[7]
  MIC: 2 µg/mL (≈ 3.96 µM)
[8]
  MIC: 1 µg/mL (≈ 1.98 µM)
[14]
  logP: 4.51
[15]
  CC50 at 72 h: 5.12 µg/mL (≈ 10.1 µM)
[16]
  MIC: 1 µg/mL (≈ 1.98 µM)
[18]
  CC50 at 72 h: 7.28 µg/mL (≈ 14.4 µM)
[20]
  CC50 at 72 h: 6.32 µg/mL (≈ 12.5 µM)
[22]
  MIC: 0.5 µg/mL (≈ 0.989 µM)
[24]
  MIC: 4 µg/mL (≈ 7.91 µM)
[30]
  LD50 at 168 h: 1260 mg/kg

## CCCCCCCCCCCC(=O)OCCC[N+](C)(C)Cc1cnc(C)c2c1COC(CCC)O2.[Cl-] (stereo not given)
[1]
  MIC: 32 µg/mL
[2]
  MIC: > 64 µg/mL
[3]
  MIC: 32 µg/mL
[4]
  MIC: 16 µg/mL
[5]
  MIC: 16 µg/mL
[6]
  MIC: > 64 µg/mL
[7]
  MIC: 2 µg/mL
[8]
  MIC: 2 µg/mL
[9]
  MIC: 4 µg/mL
[11]
  MIC: > 64 µg/mL
[33]
  Ratio: 0.5
[34]
  Ratio: 1.8
[12]
  MIC: 8 µg/mL
[13]
  MIC: 64 µg/mL
[35]
  Ratio: 1.1
[14]
  logP: 2.14
[15]
  CC50 at 72 h: 2.42 µg/mL
[16]
  MIC: 4 µg/mL
[17]
  MIC: 8 µg/mL
[18]
  CC50 at 72 h: 2.15 µg/mL
[19]
  MIC: 16 µg/mL
[20]
  CC50 at 72 h: 4.32 µg/mL
[21]
  MIC: 8 µg/mL
[36]
  Ratio: 2.4
[37]
  Ratio: 0.03
[22]
  MIC: 1 µg/mL
[23]
  MIC: 16 µg/mL
[24]
  MIC: 32 µg/mL
[38]
  Ratio: 1.5
[26]
  MIC: > 64 µg/mL
[27]
  MIC: 32 µg/mL
[28]
  MIC: 4 µg/mL
[29]
  MIC: > 64 µg/mL
[39]
  Ratio: 0.5
[31]
  MIC: 64 µg/mL
[40]
  Ratio: 1.4
[41]
  Ratio: 1.4
[32]
  MIC: 16 µg/mL
